Laboratory results taken from ChEMBL document CHEMBL5046259, “Cannabinoids Block Cellular Entry of SARS-CoV-2 and the Emerging Variants” (J Nat Prod, 2022).
≈ marks a conversion by molar mass, not a printed value. Calls of active or inactive are those of the source. The calls are words filed in the database; no cut-off is given here.

Legend:
SARS-CoV-2 [1] = assay: Antiviral activity against SARS-CoV-2 isolate USA-WA1/2020 strain infected in African green monkey Vero E6 cells assessed as inhibition of viral entry incubated for 1 hr prior to infection and measured after 48 hrs by Focus forming assay; assay type: functional, organism-based; details: Severe acute respiratory syndrome coronavirus 2, USA-WA1/2020, Vero C1008
HEK-293T = assay: Cytotoxicity against human HEK293T cells overexpressing ACE2 by resazurin assay; assay type: toxicity, cell-based
SARS-CoV-2 [2] = assay: Antiviral activity against SARS-CoV-2 infected in African green monkey Vero E6 cells assessed as inhibition of viral entry at 25 ug/ml measured after 24 hrs post infection by fluorescence microscopy; assay type: functional, organism-based; details: Severe acute respiratory syndrome coronavirus 2, dose 25.0 µg/ml
Vero C1008 = assay: Cytotoxicity against African green monkey Vero E6 cells by resazurin assay; assay type: toxicity, cell-based; details: chlorocebus sabaeus
Caco-2 = assay: Cytotoxicity against human Caco-2 cells by resazurin assay; assay type: toxicity, cell-based

Structure (SMILES) | IC50 (SARS-CoV-2 [1]) [µg/mL] | Activity (HEK-293T) | Activity (SARS-CoV-2 [2]) | Activity (Vero C1008) | Activity (Caco-2)
C=C(C)[C@@H]1CCC(C)=C[C@H]1c1c(O)cc(CCCCC)c(C(=O)O)c1O [CANNABIDIOLIC ACID] | 24 (≈ 66.9 µM) | Non-Toxic | Active | Non-Toxic | Non-Toxic
CCCCCc1cc(O)c(C/C=C(\C)CCC=C(C)C)c(O)c1C(=O)O [CANNABIGEROLIC ACID] | 37 (≈ 103 µM) | Non-Toxic | Active | Non-Toxic | Non-Toxic
